Source: patent US20140120232A1, “ACID TASTE/ACID SMELL-REDUCING AGENT” (T. HASEGAWA CO., LTD., priority 2011, published 2014)

Assay: Sensory evaluation of Vermont drink containing the agent
Conditions: ten panels
Protocol: Water was added to a mixture of 10 g of apple-cider vinegar (acetic acid: 4.8%), 3 g of honey, 7 g of fructose-glucose liquid sugar mixed with sugar, 0.02 g of citric acid, 0.002 g of trisodium citrate, and 0.1 g of a Vermont flavor (manufactured by T. Hasegawa Co., Ltd.) to give a total amount of 100 mL. To the resulting mixture was added (Z,Z)-4,7-tridecadienal as the acid taste and/or acid smell-reducing agent of the present invention in concentrations shown in the following Table 1 to give Vermont drinks containing the agent.
Sensory evaluation of each drink was carried out by ten panels. […] The piercing aroma characteristic to aldehydes is a characteristic aroma common to every aldehyde and refers to an irritant off-smell giving an image of deteriorated oils and fats, soap, metals, Houttuynia cordata, etc. The judgment of smell was performed by comparing the effects at different concentrations of the acid taste and/or acid smell-reducing agent, and a concentration giving the highest acid taste/acid smell quality was selected. […]

CCCCC/C=C/C/C=C/CCC=O [(E,E)-4,7-tridecadienal]
A: number of panels, acid taste/acid smell extreme and cause irritation (0.005 ppt): 10
B: number of panels, acid taste/acid smell slightly strong and slightly cause irritation (0.005 ppt): 0
C: number of panels, acid taste/acid smell slightly unpleasant (0.005 ppt): 0
Flavor judgment: number of panels who judged acid taste/acid smell quality the highest (0.005 ppt): 0
N: number of panels, irritation of acid reduced to give a mild acid taste (0.005 ppt): 0
X: number of panels, acid taste reduced but piercing odor characteristic to aldehydes unpleasant (0.005 ppt): 0
A: number of panels, acid taste/acid smell extreme and cause irritation (0.02 ppt): 10
B: number of panels, acid taste/acid smell slightly strong and slightly cause irritation (0.02 ppt): 0
C: number of panels, acid taste/acid smell slightly unpleasant (0.02 ppt): 0
Flavor judgment: number of panels who judged acid taste/acid smell quality the highest (0.02 ppt): 0
N: number of panels, irritation of acid reduced to give a mild acid taste (0.02 ppt): 0
X: number of panels, acid taste reduced but piercing odor characteristic to aldehydes unpleasant (0.02 ppt): 0
A: number of panels, acid taste/acid smell extreme and cause irritation (0.1 ppt): 10
B: number of panels, acid taste/acid smell slightly strong and slightly cause irritation (0.1 ppt): 0
C: number of panels, acid taste/acid smell slightly unpleasant (0.1 ppt): 0
Flavor judgment: number of panels who judged acid taste/acid smell quality the highest (0.1 ppt): 0
N: number of panels, irritation of acid reduced to give a mild acid taste (0.1 ppt): 0
X: number of panels, acid taste reduced but piercing odor characteristic to aldehydes unpleasant (0.1 ppt): 0
A: number of panels, acid taste/acid smell extreme and cause irritation (0.2 ppt): 8
B: number of panels, acid taste/acid smell slightly strong and slightly cause irritation (0.2 ppt): 2
C: number of panels, acid taste/acid smell slightly unpleasant (0.2 ppt): 0
Flavor judgment: number of panels who judged acid taste/acid smell quality the highest (0.2 ppt): 0
N: number of panels, irritation of acid reduced to give a mild acid taste (0.2 ppt): 0
X: number of panels, acid taste reduced but piercing odor characteristic to aldehydes unpleasant (0.2 ppt): 0
A: number of panels, acid taste/acid smell extreme and cause irritation (0.5 ppt): 6
B: number of panels, acid taste/acid smell slightly strong and slightly cause irritation (0.5 ppt): 2
C: number of panels, acid taste/acid smell slightly unpleasant (0.5 ppt): 2
Flavor judgment: number of panels who judged acid taste/acid smell quality the highest (0.5 ppt): 0
N: number of panels, irritation of acid reduced to give a mild acid taste (0.5 ppt): 0
X: number of panels, acid taste reduced but piercing odor characteristic to aldehydes unpleasant (0.5 ppt): 0
A: number of panels, acid taste/acid smell extreme and cause irritation (1 ppb): 0
B: number of panels, acid taste/acid smell slightly strong and slightly cause irritation (1 ppb): 0
C: number of panels, acid taste/acid smell slightly unpleasant (1 ppb): 3
Flavor judgment: number of panels who judged acid taste/acid smell quality the highest (1 ppb): 0
N: number of panels, irritation of acid reduced to give a mild acid taste (1 ppb): 4
X: number of panels, acid taste reduced but piercing odor characteristic to aldehydes unpleasant (1 ppb): 3
A: number of panels, acid taste/acid smell extreme and cause irritation (1 ppt): 0
B: number of panels, acid taste/acid smell slightly strong and slightly cause irritation (1 ppt): 4
C: number of panels, acid taste/acid smell slightly unpleasant (1 ppt): 5
Flavor judgment: number of panels who judged acid taste/acid smell quality the highest (1 ppt): 0
N: number of panels, irritation of acid reduced to give a mild acid taste (1 ppt): 1
X: number of panels, acid taste reduced but piercing odor characteristic to aldehydes unpleasant (1 ppt): 0
A: number of panels, acid taste/acid smell extreme and cause irritation (5 ppt): 0
B: number of panels, acid taste/acid smell slightly strong and slightly cause irritation (5 ppt): 1
C: number of panels, acid taste/acid smell slightly unpleasant (5 ppt): 3
Flavor judgment: number of panels who judged acid taste/acid smell quality the highest (5 ppt): 4
N: number of panels, irritation of acid reduced to give a mild acid taste (5 ppt): 6
X: number of panels, acid taste reduced but piercing odor characteristic to aldehydes unpleasant (5 ppt): 0
A: number of panels, acid taste/acid smell extreme and cause irritation (10 ppb): 0
B: number of panels, acid taste/acid smell slightly strong and slightly cause irritation (10 ppb): 0
C: number of panels, acid taste/acid smell slightly unpleasant (10 ppb): 1
Flavor judgment: number of panels who judged acid taste/acid smell quality the highest (10 ppb): 0
N: number of panels, irritation of acid reduced to give a mild acid taste (10 ppb): 3
X: number of panels, acid taste reduced but piercing odor characteristic to aldehydes unpleasant (10 ppb): 6
A: number of panels, acid taste/acid smell extreme and cause irritation (20 ppt): 0
B: number of panels, acid taste/acid smell slightly strong and slightly cause irritation (20 ppt): 0
C: number of panels, acid taste/acid smell slightly unpleasant (20 ppt): 3
Flavor judgment: number of panels who judged acid taste/acid smell quality the highest (20 ppt): 3
N: number of panels, irritation of acid reduced to give a mild acid taste (20 ppt): 7
X: number of panels, acid taste reduced but piercing odor characteristic to aldehydes unpleasant (20 ppt): 0
A: number of panels, acid taste/acid smell extreme and cause irritation (50 ppb): 0
B: number of panels, acid taste/acid smell slightly strong and slightly cause irritation (50 ppb): 0
C: number of panels, acid taste/acid smell slightly unpleasant (50 ppb): 0
Flavor judgment: number of panels who judged acid taste/acid smell quality the highest (50 ppb): 0
N: number of panels, irritation of acid reduced to give a mild acid taste (50 ppb): 3
X: number of panels, acid taste reduced but piercing odor characteristic to aldehydes unpleasant (50 ppb): 7
A: number of panels, acid taste/acid smell extreme and cause irritation (100 ppt): 0
B: number of panels, acid taste/acid smell slightly strong and slightly cause irritation (100 ppt): 0
C: number of panels, acid taste/acid smell slightly unpleasant (100 ppt): 3
Flavor judgment: number of panels who judged acid taste/acid smell quality the highest (100 ppt): 3
N: number of panels, irritation of acid reduced to give a mild acid taste (100 ppt): 7
X: number of panels, acid taste reduced but piercing odor characteristic to aldehydes unpleasant (100 ppt): 0
A: number of panels, acid taste/acid smell extreme and cause irritation (500 ppt): 0
B: number of panels, acid taste/acid smell slightly strong and slightly cause irritation (500 ppt): 2
C: number of panels, acid taste/acid smell slightly unpleasant (500 ppt): 3
Flavor judgment: number of panels who judged acid taste/acid smell quality the highest (500 ppt): 0
N: number of panels, irritation of acid reduced to give a mild acid taste (500 ppt): 3
X: number of panels, acid taste reduced but piercing odor characteristic to aldehydes unpleasant (500 ppt): 2
